Data taken from patent publication US20240299385A1 (ReWind Therapeutics NV, priority 2021, published 2024).

target: T1, human GPR17 receptor (Homo sapiens, UniProt Q13304); assay: Calcium mobilization functional assay (Fluo-8, FLIPR TETRA) in HEK-293 hGPR17 (Gα-q assay); format: cell-based; settings: antagonism of MDL29,951 (~EC80) induced Ca2+ signal; cell line (HEK-293 hGPR17 or HEK-293 Suchi5 hGPR17) not given
T1 construct: host or cells: HEK-293
Outline: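 Fluo-8-loaded HEK-293 hGPR17 cells (60 min dye loading, room temperature) were preincubated with compound for twenty minutes, then challenged with agonist MDL29,951 at ~EC80, 500 nM. Intracellular calcium release via Gα-q was recorded as FLIPR fluorescence for a further 2 minutes; compounds tested in duplicate.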

T1 sequence (Q13304 whole entry): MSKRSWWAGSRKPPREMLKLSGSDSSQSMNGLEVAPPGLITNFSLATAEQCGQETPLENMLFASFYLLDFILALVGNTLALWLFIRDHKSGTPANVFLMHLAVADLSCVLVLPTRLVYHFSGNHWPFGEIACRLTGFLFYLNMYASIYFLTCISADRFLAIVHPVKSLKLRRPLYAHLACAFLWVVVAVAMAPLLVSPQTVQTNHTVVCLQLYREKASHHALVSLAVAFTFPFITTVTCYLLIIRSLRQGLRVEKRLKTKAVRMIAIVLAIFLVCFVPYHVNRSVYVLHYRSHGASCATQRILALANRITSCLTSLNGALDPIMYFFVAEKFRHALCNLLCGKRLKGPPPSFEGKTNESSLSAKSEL

IC50, < 500 nM:
N#Cc1ccc(NS(=O)(=O)c2c[nH]c(-c3cccc(F)c3Cl)c2)c(F)c1 [Cpd 267, 5-(2-chloro-3-fluoro-phenyl)-N-(4-cyano-2-fluoro-phenyl)-1H-pyrrole-3-sulfonamide]
Cc1cc(-c2cc(S(=O)(=O)Nc3ccc(C#N)cc3F)c[nH]2)ccc1F [Cpd 269, N-(4-cyano-2-fluoro-phenyl)-5-(4-fluoro-3-methyl-phenyl)-1H-pyrrole-3-sulfonamide]
O=S(=O)(Nc1cc(F)c(OC(F)F)cc1F)c1c[nH]cc1Cc1ccccc1 [Cpd 271, 4-benzyl-N-[4-(difluoromethoxy)-2,5-difluoro-phenyl]-1H-pyrrole-3-sulfonamide]
O=S(=O)(Nc1cc(F)c(C(F)(F)F)cc1F)c1c[nH]c(-c2cccs2)c1 [Cpd 272, N-[2,5-difluoro-4-(trifluoromethyl)phenyl]-5-(2-thienyl)-1H-pyrrole-3-sulfonamide]
O=S(=O)(Nc1cc(F)c(C(F)(F)F)cc1F)c1c[nH]c(-c2ccsc2)c1 [Cpd 273, N-[2,5-difluoro-4-(trifluoromethyl)phenyl]-5-(3-thienyl)-1H-pyrrole-3-sulfonamide]
O=S(=O)(Nc1cc(F)c(C(F)(F)F)cc1F)c1c[nH]c(-c2ccco2)c1 [Cpd 275, N-[2,5-difluoro-4-(trifluoromethyl)phenyl]-5-(2-furyl)-1H-pyrrole-3-sulfonamide]
O=S(=O)(Nc1cc(F)c(C(F)(F)F)cc1F)c1c[nH]c(-c2ccoc2)c1 [Cpd 276, N-(2,5-difluoro-4-(trifluoromethyl)phenyl)-5-(furan-3-yl)-1H-pyrrole-3-sulfonamide]
O=S(=O)(Nc1cc(F)c(C(F)(F)F)cc1F)c1c[nH]c(-c2ccsn2)c1 [Cpd 278, N-[2,5-difluoro-4-(trifluoromethyl)phenyl]-5-isothiazol-3-yl-1H-pyrrole-3-sulfonamide]
COc1cccc(-c2cc(S(=O)(=O)Nc3cc(F)c(C(F)(F)F)cc3F)c[nH]2)n1 [Cpd 281, N-[2,5-difluoro-4-(trifluoromethyl)phenyl]-5-(6-methoxy-2-pyridyl)-1H-pyrrole-3-sulfonamide]
Cc1ccc(F)cc1-c1cc(S(=O)(=O)Nc2ccc(C#N)cc2F)c[nH]1 [Cpd 285, N-(4-cyano-2-fluoro-phenyl)-5-(5-fluoro-2-methyl-phenyl)-1H-pyrrole-3-sulfonamide]
N#Cc1ccc(NS(=O)(=O)c2c[nH]c(-c3c(F)cccc3Cl)c2)c(F)c1 [Cpd 289, 5-(2-chloro-6-fluoro-phenyl)-N-(4-cyano-2-fluoro-phenyl)-1H-pyrrole-3-sulfonamide]
COc1c(F)cccc1-c1cc(S(=O)(=O)Nc2ccc(C#N)cc2F)c[nH]1 [Cpd 290, N-(4-cyano-2-fluoro-phenyl)-5-(3-fluoro-2-methoxy-phenyl)-1H-pyrrole-3-sulfonamide]
O=S(=O)(Nc1cc(F)c(C(F)(F)F)cc1F)c1c[nH]c(-c2cscn2)c1 [Cpd 302, N-[2,5-difluoro-4-(trifluoromethyl)phenyl]-5-thiazol-4-yl-1H-pyrrole-3-sulfonamide]

IC50, 500 to 5000 nM:
COc1ccc(C)c(-c2cc(S(=O)(=O)Nc3ccc(C#N)cc3F)c[nH]2)c1 [Cpd 268, N-(4-cyano-2-fluoro-phenyl)-5-(5-methoxy-2-methyl-phenyl)-1H-pyrrole-3-sulfonamide]
N#Cc1ccc(NS(=O)(=O)c2c[nH]c(-c3c(Cl)cccc3Cl)c2)c(F)c1 [Cpd 270, N-(4-cyano-2-fluoro-phenyl)-5-(2,6-dichlorophenyl)-1H-pyrrole-3-sulfonamide]
Cc1ccc(-c2cc(S(=O)(=O)Nc3cc(F)c(C(F)(F)F)cc3F)c[nH]2)s1 [Cpd 274, N-[2,5-difluoro-4-(trifluoromethyl)phenyl]-5-(5-methyl-2-thienyl)-1H-pyrrole-3-sulfonamide]
Cn1cncc1-c1cc(S(=O)(=O)Nc2cc(F)c(C(F)(F)F)cc2F)c[nH]1 [Cpd 277, N-[2,5-difluoro-4-(trifluoromethyl)phenyl]-5-(3-methylimidazol-4-yl)-1H-pyrrole-3-sulfonamide]
Cc1cccc(-c2cc(S(=O)(=O)Nc3cc(F)c(C(F)(F)F)cc3F)c[nH]2)n1 [Cpd 279, N-[2,5-difluoro-4-(trifluoromethyl)phenyl]-5-(6-methyl-2-pyridyl)-1H-pyrrole-3-sulfonamide]
Cc1ccc(-c2cc(S(=O)(=O)Nc3cc(F)c(C(F)(F)F)cc3F)c[nH]2)nc1 [Cpd 280, N-[2,5-difluoro-4-(trifluoromethyl)phenyl]-5-(5-methyl-2-pyridyl)-1H-pyrrole-3-sulfonamide]
N#Cc1ccc(NS(=O)(=O)c2c[nH]c(-c3ccc(F)c(Cl)c3)c2)c(F)c1 [Cpd 284, 5-(3-chloro-4-fluoro-phenyl)-N-(4-cyano-2-fluoro-phenyl)-1H-pyrrole-3-sulfonamide]
Cc1cc(NS(=O)(=O)c2c[nH]c(-c3ccccn3)c2)c(F)cc1C#N [Cpd 286, N-(4-cyano-2-fluoro-5-methyl-phenyl)-5-(2-pyridyl)-1H-pyrrole-3-sulfonamide]
N#Cc1ccc(NS(=O)(=O)c2c[nH]c(-c3ccc(Cl)c(F)c3)c2)c(F)c1 [Cpd 287, 5-(4-chloro-3-fluoro-phenyl)-N-(4-cyano-2-fluoro-phenyl)-1H-pyrrole-3-sulfonamide]
Cc1cc(F)cc(-c2cc(S(=O)(=O)Nc3ccc(C#N)cc3F)c[nH]2)c1 [Cpd 288, N-(4-cyano-2-fluoro-phenyl)-5-(3-fluoro-5-methyl-phenyl)-1H-pyrrole-3-sulfonamide]
N#Cc1ccc(NS(=O)(=O)c2c[nH]c(-c3ccc(F)c(F)c3)c2)c(F)c1 [Cpd 291, N-(4-cyano-2-fluoro-phenyl)-5-(3,4-difluorophenyl)-1H-pyrrole-3-sulfonamide]
N#Cc1ccc(NS(=O)(=O)c2c[nH]c(-c3cccc(Cl)c3Cl)c2)c(F)c1 [Cpd 292, N-(4-cyano-2-fluoro-phenyl)-5-(2,3-dichlorophenyl)-1H-pyrrole-3-sulfonamide]
Cc1ccc(Cl)cc1-c1cc(S(=O)(=O)Nc2ccc(C#N)cc2F)c[nH]1 [Cpd 296, 5-(5-chloro-2-methyl-phenyl)-N-(4-cyano-2-fluoro-phenyl)-1H-pyrrole-3-sulfonamide]
COc1ccccc1-c1cc(S(=O)(=O)Nc2cc(F)c(C(F)(F)F)cc2F)c[nH]1 [Cpd 298, N-[2,5-difluoro-4-(trifluoromethyl)phenyl]-5-(2-methoxyphenyl)-1H-pyrrole-3-sulfonamide]
COc1cc(F)cc(-c2cc(S(=O)(=O)Nc3ccc(C#N)cc3F)c[nH]2)c1 [Cpd 299, N-(4-cyano-2-fluoro-phenyl)-5-(3-fluoro-5-methoxy-phenyl)-1H-pyrrole-3-sulfonamide]
COc1ccc(-c2cc(S(=O)(=O)Nc3ccc(C#N)cc3F)c[nH]2)c(Cl)c1 [Cpd 300, 5-(2-chloro-4-methoxy-phenyl)-N-(4-cyano-2-fluoro-phenyl)-1H-pyrrole-3-sulfonamide]
O=S(=O)(Nc1cc(F)c(C(F)(F)F)cc1F)c1c[nH]c(-c2cccc(F)c2F)c1 [Cpd 301, 5-(2,3-difluorophenyl)-N-[2,5-difluoro-4-(trifluoromethyl)phenyl]-1H-pyrrole-3-sulfonamide]
Cc1ccnc(-c2cc(S(=O)(=O)Nc3cc(F)c(C(F)(F)F)cc3F)c[nH]2)c1 [Cpd 303, N-[2,5-difluoro-4-(trifluoromethyl)phenyl]-5-(4-methyl-2-pyridyl)-1H-pyrrole-3-sulfonamide]
COc1ccc(-c2cc(S(=O)(=O)Nc3cc(F)c(C(F)(F)F)cc3F)c[nH]2)nc1 [Cpd 304, N-[2,5-difluoro-4-(trifluoromethyl)phenyl]-5-(5-methoxy-2-pyridyl)-1H-pyrrole-3-sulfonamide]
COc1ccnc(-c2cc(S(=O)(=O)Nc3cc(F)c(C(F)(F)F)cc3F)c[nH]2)c1 [Cpd 305, N-[2,5-difluoro-4-(trifluoromethyl)phenyl]-5-(4-methoxy-2-pyridyl)-1H-pyrrole-3-sulfonamide]
Cc1cccc(Cc2c[nH]cc2S(=O)(=O)Nc2ccc(C#N)cc2F)c1 [Cpd 306, N-(4-cyano-2-fluoro-phenyl)-4-(m-tolylmethyl)-1H-pyrrole-3-sulfonamide]

IC50, 5000 to 50000 nM:
O=S(=O)(Nc1cc(F)c(C(F)(F)F)cc1F)c1c[nH]c(-c2ncccc2C(F)(F)F)c1 [Cpd 282, N-[2,5-difluoro-4-(trifluoromethyl)phenyl]-5-[3-(trifluoromethyl)-2-pyridyl]-1H-pyrrole-3-sulfonamide]
COc1cccc(-c2cc(S(=O)(=O)Nc3ccc(C#N)cc3F)c[nH]2)c1C [Cpd 283, N-(4-cyano-2-fluoro-phenyl)-5-(3-methoxy-2-methyl-phenyl)-1H-pyrrole-3-sulfonamide]
Cc1ccc(-c2cc(S(=O)(=O)Nc3cc(F)c(C(F)(F)F)cc3F)c[nH]2)c(F)c1 [Cpd 293, N-[2,5-difluoro-4-(trifluoromethyl)phenyl]-5-(2-fluoro-4-methyl-phenyl)-1H-pyrrole-3-sulfonamide]
COc1ccc(-c2cc(S(=O)(=O)Nc3cc(F)c(C(F)(F)F)cc3F)c[nH]2)cc1 [Cpd 294, N-[2,5-difluoro-4-(trifluoromethyl)phenyl]-5-(4-methoxyphenyl)-1H-pyrrole-3-sulfonamide]
Cc1ccc(-c2cc(S(=O)(=O)Nc3cc(F)c(C(F)(F)F)cc3F)c[nH]2)cc1 [Cpd 295, N-[2,5-difluoro-4-(trifluoromethyl)phenyl]-5-(p-tolyl)-1H-pyrrole-3-sulfonamide]
O=S(=O)(Nc1cc(F)c(C(F)(F)F)cc1F)c1c[nH]c(-c2ccc(Cl)cc2)c1 [Cpd 297, 5-(4-chlorophenyl)-N-[2,5-difluoro-4-(trifluoromethyl)phenyl]-1H-pyrrole-3-sulfonamide]
